IC50 data for four compounds are collected here from patent publication US20070088031A1, “Novel chemical compounds” (priority 2003, published 2007).

The assay deals with GSK-3β (Homo sapiens, UniProt P49841). As to the kind of experiment: GSK-3 kinase scintillation proximity assay (SPA) with biotinylated glycogen synthase peptide. The format is biochemical. The following applies: 20 nM kinase, 2.5 uM ATP, 40 minutes at room temperature; pIC50 = -log IC50 in Molar; read-out: GSK-3 inhibition. The text has this: The phosphorylated biotinylated peptide is then captured onto streptavidin coated scintillation proximity assay (SPA) beads from Amersham Technology, where the signal from the ^33P is amplified via the scintillant contained in the beads.
GSK-3β, sequence (P49841 whole entry, species assumed): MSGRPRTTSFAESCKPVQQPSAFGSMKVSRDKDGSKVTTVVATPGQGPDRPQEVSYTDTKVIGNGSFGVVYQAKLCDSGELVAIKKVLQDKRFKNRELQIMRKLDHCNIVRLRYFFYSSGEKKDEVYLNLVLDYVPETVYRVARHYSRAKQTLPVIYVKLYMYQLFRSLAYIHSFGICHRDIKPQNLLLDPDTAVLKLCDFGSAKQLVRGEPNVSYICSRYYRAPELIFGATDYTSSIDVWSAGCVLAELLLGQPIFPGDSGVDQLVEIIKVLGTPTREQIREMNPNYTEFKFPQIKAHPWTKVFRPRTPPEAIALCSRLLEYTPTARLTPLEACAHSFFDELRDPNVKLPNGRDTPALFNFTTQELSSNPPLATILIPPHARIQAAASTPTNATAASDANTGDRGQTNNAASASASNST
GSK-3β, is commercially available or may be cloned and expressed in E coli using standard techniques to produce soluble, active protein. The production of active protein involves purification in two steps using Metal Chelate and Ion Exchange Chromatography. Protein eluting from Ion Exchange provides >90% pure product that may then be concentrated for use in high throughput screening.
The kinase was assayed at a concentration of 20 nM final in 100 mM HEPES, pH 7.2 containing 10 mM magnesium chloride, 0.1 mg/mL bovine serum albumin, 1 mM dithiothreitol, 0.3 mg/mL heparin, 2.8 uM peptide substrate, 2.5 uM ATP, and 0.2 uCi/well γ^33P]-ATP. After 40 minutes incubation at room temperature, the reaction was stopped by addition of 100 mM EDTA and […] in 100 mM HEPES, pH7.2 followed by an additional solution of diluted Streptavidin coated SPA beads in PBS, pH 7.2 to give a final concentration of 0.25 mg of beads per assay well in a 96-well microtiter plate.
10 mM stock solutions of the compounds of the invention in 100% DMSO are generated as a first step in the screening process. The second step involves the creation of dose response plates where these compounds are diluted 10-fold in 100% DMSO to 1 mM concentrations and subsequently serially diluted 3-fold in 100% DMSO across the plate by automated liquid handling such that the final top concentration of inhibitor is 0.033 mM in the 30 uL kinase assay. The third step involves the creation of the assay plates. This is achieved by transferring 1 uL of the compounds to assay plates by automated liquid handling. The fourth step is to perform the assay as described and count the resulting plates in the Packard TopCount NXT microplate scintillation and luminescence counter. The final step is data acquisition and analysis where IC50 values are generated for each compound by normalizing curve data to the equation 100*(U1−C2)/(C1−C2) (where U1 is the cpm value, C2 is the background, and C1 is the maximum number of counts), then fitting the normalized data to the equation y=Vmax*(1−(x/(K+x))). The IC50 values were converted to pIC50 values, i.e., -log IC50 in Molar concentration.
A general note: Scintillation proximity formats need no separation of bound from free tracer.
In the case of `COc1ccc(-c2cc3c(NC(=O)C4CCCC4)ncnc3o2)cc1` [Example 3, Cyclopentanecarboxylic acid [6-(4-methoxy-phenyl)-furo[2,3-d]pyrimidin-4-yl]-amide], the IC50 fell in the range of 10 to 100 nM.

For the compound `COc1ccc(-c2cc3c(NC(=O)CCSC)ncnc3o2)cc1` [Example 4, N-[6-(4-Methoxy-phenyl)-furo[2,3-d]pyrimidin-4-yl]-3-methylsulfanyl-propionamide], the IC50 lay in the range of 100 to 1000 nM.

On to `COc1ccc(-c2cc3c(NC(=O)C4CCCCC4)ncnc3o2)cc1` [Example 6, Cyclohexanecarboxylic acid [6-(4-methoxy-phenyl)-furo[2,3-d]pyrimidin-4-yl]-amide], for which the IC50 is above 1000 nM. Then `O=C(Nc1ncnc2oc(-c3cccnc3)cc12)C1CCCC1` [Example 20, Cyclopentanecarboxylic acid (6-pyridin-3-yl-furo[2,3-d]pyrimidin-4-yl)-amide], with below 10 nM.
